Results reported in patent US20230021483A1, “[…] […] METHOD AND CLASSIFICATION OF PHARMACEUTICAL COMPONENTS BY USING TRANSCRIPTOMES” (National Institutes of Biomedical Innovation, Health and …, priority 2016, published 2023).

Tested on: adjuvant-associated biological themes in LV, SP, LN
Conditions: LV, ID
Source text: A defined sets of genes were selected according to specified criteria (e.g., FC, PA-call, threshold values). Their functional enrichment values were then obtained from TargetMine (Chen, Y. A., Tripathi, L. P. & Mizuguchi, K. PloS one 6, e17844 (2011)) (http://targetmine.mizuguchilab.org/) using the API interface. The following resources were used throughout the analysis via TargetMine Interface (GO, GOSlim, Integrated Pathway, KEGG, Reactome, and the NCI pathway). The Holm-Bonferroni method was used for multiple testing corrections.
Whole organ transcriptome data for each organ from each mouse were analyzed as follows to obtain biological themes for individual samples from each adjuvant-administered group of three mice. […] A set of Pj genes was first defined, where eij/ei(c)>2.0. Biological themes enriched within Pj were then identified using TargetMine (Chen, Y. A. et al., PloS one 6, e17844 (2011)) (http://targetmine.mizuguchilab.org/). Tj denote the resulting list of biological themes, with associated p-values from Fischer's exact test.
Next, the biological themes called by all the individual samples in the group were scored as follows. Having obtained three lists (T1, T2 and T3) for a given experimental condition, a consensus list T of themes was created as T={(t1, p1), (t2, p2), . . . }, where ti is a biological theme that appears in all of T1, T2 and T3, and pi is the smallest of the associated p-values. Only the themes with the p-value of <0.05 were included in T.
To summarize the biological themes in T further, a list of terms considered to be associated with adjuvant activity in general was separately prepared. AT={at1, at2, . . . }, where ati is a pre-selected adjuvant-associated term (e.g., “stress” or “cytokine”). Finally, an enrichment score S for an adjuvant-associated term ati was defined as: S(ati)=Σ−log(pj), where the name of tj in T includes a term ati as a substring and pj is the associated p-value.
This scoring scheme summarizes the relative enrichment of pre-selected adjuvant-associated terms in genes responding to each adjuvant in each organ.

Which results are given for `CCOCc1nc2c(N)nc3ccccc3c2n1CC(C)(C)O` [R848, 4-amino-2-(ethoxymethyl)-a,a-dimethyl-1H-imidazo[4,5-c]quinoline-1-ethanol]?
IFN alpha, GO annotation line 1 of 5: 10.2; IFN alpha, GO annotation line 2 of 5: 3.15; IFN alpha: cellular response to interferon-alpha: 0; IFN alpha: positive regulation of interferon-alpha production: 0; IFN alpha: regulation of interferon-alpha production: 0; IFN beta: cellular response to interferon-beta: 17.9; IFN beta: interferon-beta production: 7.51; IFN beta: positive regulation of interferon-beta production: 6.66; IFN beta: regulation of interferon-beta production: 5.68; IFN beta: response to interferon-beta: 23.9; IFN gamma: cellular response to interferon-gamma: 11.2; IFN gamma: interferon-gamma production: 0; IFN gamma: regulation of interferon-gamma production: 0; IFN gamma: response to interferon-gamma: 15.7; NF-kappa B signaling pathway, GO annotation line 1 of 4: 8.86; NF-kappa B signaling pathway, GO annotation line 2 of 4: 7.93; NF-kappa B signaling pathway, GO annotation line 3 of 4: 5.3; NF-kappa B signaling pathway, GO annotation line 4 of 4: 5.28; TNF signaling pathway: 16.1; adaptive immune response, GO annotation line 1 of 5: 4.42; adaptive immune response, GO annotation line 2 of 5: 6.23; adaptive immune response, GO annotation line 3 of 5: 4.06; adaptive immune response, GO annotation line 4 of 5: 0; adaptive immune response, GO annotation line 5 of 5: 0; apoptosis, GO annotation line 1 of 8: 18.6; apoptosis, GO annotation line 2 of 8: 15.5; apoptosis, GO annotation line 3 of 8: 10.6; apoptosis, GO annotation line 4 of 8: 5.18; apoptosis, GO annotation line 5 of 8: 4.1; apoptosis, GO annotation line 6 of 8: 5.48; apoptosis, GO annotation line 7 of 8: 0; apoptosis, GO annotation line 8 of 8: 0; cell death, GO annotation line 1 of 9: 23.1; cell death, GO annotation line 2 of 9: 18.3; cell death, GO annotation line 3 of 9: 19.4; cell death, GO annotation line 4 of 9: 15.5; cell death, GO annotation line 5 of 9: 15.5; cell death, GO annotation line 6 of 9: 4.66; cell death, GO annotation line 7 of 9: 4.64; cell death, GO annotation line 8 of 9: 0; cell death, GO annotation line 9 of 9: 0; chemokine, GO annotation line 1 of 4: 3.95; chemokine, GO annotation line 2 of 4: 0; chemokine, GO annotation line 3 of 4: 0; chemokine, GO annotation line 4 of 4: 0; chemotaxis, GO annotation line 1 of 11: 11; chemotaxis, GO annotation line 2 of 11: 0; chemotaxis, GO annotation line 3 of 11: 8.03; chemotaxis, GO annotation line 4 of 11: 3.91; chemotaxis, GO annotation line 5 of 11: 0; chemotaxis, GO annotation line 6 of 11: 4.44; chemotaxis, GO annotation line 7 of 11: 3.7; chemotaxis, GO annotation line 8 of 11: 3.31; chemotaxis, GO annotation line 9 of 11: 0; chemotaxis, GO annotation line 10 of 11: 3.62; chemotaxis, GO annotation line 11 of 11: 0; cytokine, GO annotation line 1 of 17: 44.8; cytokine, GO annotation line 2 of 17: 30.5; cytokine, GO annotation line 3 of 17: 30.4; cytokine, GO annotation line 4 of 17: 11.1; cytokine, GO annotation line 5 of 17: 30.4; cytokine, GO annotation line 6 of 17: 26.5; cytokine, GO annotation line 7 of 17: 16.5; cytokine, GO annotation line 8 of 17: 5.44; cytokine, GO annotation line 9 of 17: 4.8; cytokine, GO annotation line 10 of 17: 20.3; cytokine, GO annotation line 11 of 17: 5.01; cytokine, GO annotation line 12 of 17: 0; cytokine, GO annotation line 13 of 17: 5.55; cytokine, GO annotation line 14 of 17: 6.84; cytokine, GO annotation line 15 of 17: 0; cytokine, GO annotation line 16 of 17: 0; cytokine, GO annotation line 17 of 17: 0; defense response, GO annotation line 1 of 11: 71.2; defense response, GO annotation line 2 of 11: 50.3; defense response, GO annotation line 3 of 11: 33.9; defense response, GO annotation line 4 of 11: 46.5; defense response, GO annotation line 5 of 11: 18.6; defense response, GO annotation line 6 of 11: 8.29; defense response, GO annotation line 7 of 11: 5.54; defense response, GO annotation line 8 of 11: 20; defense response, GO annotation line 9 of 11: 6.02; defense response, GO annotation line 10 of 11: 4.72; defense response, GO annotation line 11 of 11: 0; immune response, GO annotation line 1 of 8: 54.5; immune response, GO annotation line 2 of 8: 27.8; immune response, GO annotation line 3 of 8: 34.2; immune response, GO annotation line 4 of 8: 14.6; immune response, GO annotation line 5 of 8: 12.6; immune response, GO annotation line 6 of 8: 15.1; immune response, GO annotation line 7 of 8: 0; immune response, GO annotation line 8 of 8: 0; inflammatory response, GO annotation line 1 of 5: 22.2; inflammatory response, GO annotation line 2 of 5: 6.29; inflammatory response, GO annotation line 3 of 5: 0; inflammatory response, GO annotation line 4 of 5: 0; inflammatory response, GO annotation line 5 of 5: 0; innate immune response, GO annotation line 1 of 6: 49.6; innate immune response, GO annotation line 2 of 6: 37.9; innate immune response, GO annotation line 3 of 6: 22.9; innate immune response, GO annotation line 4 of 6: 17.9; innate immune response, GO annotation line 5 of 6: 13.8; innate immune response, GO annotation line 6 of 6: 8.91; interleukin-6: interleukin-6 production: 7.8; interleukin-6: positive regulation of interleukin-6 production: 4.53; interleukin-6: regulation of interleukin-6 production: 6.67; interleukin-12: interleukin-12 production: 0; interleukin-12: positive regulation of interleukin-12 production: 0; interleukin-12: regulation of interleukin-12 production: 0; migration, GO annotation line 1 of 10: 8.03; migration, GO annotation line 2 of 10: 0; migration, GO annotation line 3 of 10: 7.89; migration, GO annotation line 4 of 10: 5.8; migration, GO annotation line 5 of 10: 3.14; migration, GO annotation line 6 of 10: 3.96; migration, GO annotation line 7 of 10: 3.31; migration, GO annotation line 8 of 10: 0; migration, GO annotation line 9 of 10: 0; migration, GO annotation line 10 of 10: 0; stress, GO annotation line 1 of 3: 63.8; stress, GO annotation line 2 of 3: 45.6; stress, GO annotation line 3 of 3: 0; wounding, GO annotation line 1 of 3: 11.1; wounding, GO annotation line 2 of 3: 9.74; wounding, GO annotation line 3 of 3: 4.53
